Test results taken from publication PMC8901753, “An ultrasensitive microfluidic approach reveals correlations between the physico-chemical and biological activity of experimental peptide antibiotics” (Scientific Reports, 2022).

Tests used:
[1] = Single-GUV dye (HPTS) leakage assay, membranolytic activity; conditions: for vesicle survival rate: continuous flow, after 7 h, PBS pH 7.4, mean ± std. dev., 2 independent repeats; for mode of action from time distribution of single-GUV leakage events: 5 and 10 μM peptide
Source text: Given this variability in the cellular responses to treatment, we hypothesized that cell-to-cell differences at the membrane level could underlie the observed heterogeneity in the bacterial responses to these novel peptides. We therefore used anionic giant unilamellar vesicles (GUVs) as highly controlled model membranes to study the membranolytic activity of the bienA and bienK peptides. The vesicles were produced in a microfluidic chip using octanol-assisted liposome assembly (OLA)[40] and made with a 3:1 mixture of 1,2-dioleoyl-sn-glycero-3-phosphocholine (DOPC) and 1,2-dioleoyl-sn-glycero-3- phospho-rac-(1-glycerol) sodium salt (DOPG) to mimic the anionic charge of bacterial membranes[27] (Fig. 4). We note that E. coli membranes are estimated to be ~ 20% PG, and that lipids of the inner membrane in particular contain a high proportion (over 95%) of phospholipids, similar to our phospholipid-based GUV models. The more complex E. coli outer membrane includes both phospholipids and glycolipids. […] In particular, in a direct comparison, AMP induced membrane permeabilisation was similar across GUVs and E. coli inner (cytoplasmic) membranes, albeit with some interesting dissimilarities in a few specific details. In our assay, the GUVs were formed encapsulating a membrane impermeable dye, HPTS (8-hydroxypyrene-1,3,6-trisulfonic acid) and immobilized using an array of physical traps; the peptide solution was then flowed over them using a continuous flow system.
Figure 4 Schematic of the integrated GUV production, trapping and perfusion platform. GUVs are produced using octanol-assisted liposome assembly at a 6-way junction as described elsewhere. Briefly, lipids dissolved in octanol (the “LO” phase) are brought together at the junction with inner aqueous (IA) and outer aqueous (OA) streams, leading to the production of GUVs hosting octanol droplets. The octanol droplets bud off the GUVs downstream. This mixture of GUVs and octanol droplets is distributed into an array of trapping chambers via a connector chip, which additionally facilitates the separation of the GUVs and octanol droplets (for details, please see Al Nahas et al. Lab Chip 2019[27]). The trapped vesicles contain the membrane-impermeable fluorescent dye HPTS. Post-trapping, the GUVs are subjected to a continuous flow of peptides, and the membranolytic efficacy of the peptides is determined by studying the leakage of the fluorescent dye from the interior of the GUVs via video fluorescence microscopy.
We have published detailed protocols for the design, fabrication and operation of the microfluidic device for immobilizing and testing thousands of individual GUVs, which can be found elsewhere[23],[27]. A detailed protocol for the octanol-assisted liposome assembly (OLA) technique of producing GUVs on chip is also available. Briefly, our platform facilitated three procedural steps integrated in a single device. First, the OLA[40] technique was used to prepare GUVs. Next, the GUVs were trapped downstream in arrays of hydrodynamic posts. Finally, the immobilized GUVs were perfused with the desired dose of a peptide. All lipids described in the text were purchased from Avanti Polar Lipids. The GUVs were prepared in sucrose solution (200 mM) with glycerol (15% v/v) in PBS (pH 7.4). The vesicles were formed encapsulating the fluorescent membrane-impermeable dye 8-hydroxypyrene-1,3,6-trisulfonic acid from Thermo Fisher (HPTS, 50 μM). The microfluidic platform was operated by two positive pressure-driven pump modules (MFCS-4C, Fluigent), and a single neMESYS syringe pump module for fluid manipulation. The trapped GUVs were continuously dosed with buffer solution loaded with 5 μM HPTS (as a tracer) and the peptide of interest at 5 or 10 μM concentrations (the stock peptide solutions were prepared in milliQ water as described previously). […]

[2] = system: E. coli BW25113 cells; experiment: Mother-machine microfluidics-microscopy single-cell assay; type: cell-based, Escherichia coli; conditions: for cell division during peptide treatment / coefficient of variation (CV) in the cell lengths / Lmean 3h (mean cell length normalized to initial cell length) / survival fraction (fraction of wells hosting dividing cells after peptide treatment and overnight LB) / increase in cell length on average before cell death: 10 μM peptide; for cell division during peptide treatment: 3 h, measured per well; for coefficient of variation (CV) in the cell lengths: 3 h time point, susceptible cells, 20 cells from 2 repeats (bienA9: 5 cells, 1 experiment); for Lmean 3h (mean cell length normalized to initial cell length): 3 h time-point, mean ± std. dev.; for Lmean 3h (mean cell length normalized to initial cell length) / increase in cell length on average before cell death: susceptible cells killed before dividing; for survival fraction (fraction of wells hosting dividing cells after peptide treatment and overnight LB): continuous flow 3 h, then LB overnight (17–18 h), stationary phase cells, mean ± std. dev. over 2 biological repeats; for No. of non-dividing survivors at the end of the experiments: 10 M [sic] peptide, cells that did not divide and did not stain with propidium iodide, out of 305–323 initial cells
Source text: The “mother-machine” system (Fig. 1A) enables the physical confinement of individual bacteria in well-controlled microenvironments, where they can be sequentially exposed to nutrients, drugs or viability indicators and the responses studied using time-lapse microscopy[28]–[30]. This technology has been used extensively to study bacterial-drug interactions, using a range of conventional small-molecule antibiotics such as ampicillin, gentamicin, ciprofloxacin (amongst others)[28],[30]–[33], phages[34] as well as novel protein pseudocapsid based antibacterials. Briefly E. coli BW25113 cells were cultured overnight in Lysogeny Broth (LB) at 37 °C to stationary phase and injected into the mother-machine microfluidic device (see “Experimental section” and[28],[29],[31],[32]). We waited for the cells to populate the “wells” of the chip (Fig. 1), following which the trapped cells were challenged with a continuous flow of peptide (10 μM) for 3 h, with images taken hourly. After 3 h of treatment, the cells were provided with fresh LB to study survivors. Post overnight (O/N) LB treatment, dead staining was performed with propidium iodide (PI). Dead cells either lysed or took up PI and appeared bright under fluorescence illumination (Fig. 1B). […] However, the cells that were dividing at the end of the experiment were unambiguously alive. Therefore, we chose to use only these dividing cells in our quantitative analysis discussed below.
Thus, reaching a critical peptide length leads to increased antibacterial activity with the bienA peptides. […] For bienK10 and bienK11, the survival fractions were 56 ± 26% (204 wells, 305 cells) and 31 ± 18% (215 wells, 311 cells) respectively (Fig. 2B), markedly different from the bienA10 and bienA11 results (Fig. 2A). Thus for these bienK peptides, while some individual cells were killed by the peptides, a large number of other clonal relatives survived the exact same conditions, similar to the example shown in Fig. 1. […] Our results reveal important phenotypic variants seemingly oblivious to the effects of these polypeptide antibiotics that are able to grow and divide even during treatment, while their clonal relatives perish. We also observed similar trends when quantifying the cellular division rates in response to the peptides (Fig. 2C,D). […] Again, as with the survival fractions, this peptide length dependence was not observed for the cellular division rates with the bienK series (Fig. 2D).
The Escherichia coli (BW25113) cultures were prepared in 150 mL of Lysogeny Broth (LB; 10 g/L tryptone, 5 g/L yeast extract and 10 g/L NaCl, Melford) with shaking at 200 rpm and incubation at 37 °C overnight (drug dosage during experiments was typically performed around 19–20 h after starting the culture). Prior to seeding in the microfluidic chip, the OD (optical density) of the culture was measured, the cells spun down at 3220g for 5 min and the supernatant filtered twice (0.22 µm, Millipore); this twice filtered supernatant is hereafter referred to as “spent LB”. All OD measurements were carried out at 600 nm. The cell pellet was resuspended in spent LB at an approximate OD of 75; this concentrated stationary phase culture was used when seeding the microfluidic chip with bacteria. Note, the OD of 75 is a theoretical value—we measure the OD of the original stationary phase culture, and calculate the volume of spent LB that the cell pellet (post centrifugation) is to be resuspended in to achieve this OD. In practical terms, one simply needs to concentrate the culture to optimise the efficiency of cells entering the wells of the mother-machine microfluidic device within a 30 min timeframe. We also note that unlike most traditional bulk experiments, we chose to study cells initially seeded in the microfluidic device in stationary phase, in line with previous studies using this platform[30]–[32],[34]. […]

Row | Sequence | vesicle survival rate ([1]; 5 μM peptide) | vesicle survival rate ([1]; 10 μM peptide) | mode of action from time distribution of single-GUV leakage events [1] | cell division during peptide treatment [2] | coefficient of variation (CV) in the cell lengths [2] | Lmean 3h (mean cell length normalized to initial cell length) [2] | survival fraction (fraction of wells hosting dividing cells after peptide treatment and overnight LB) [2] | survival fraction (fraction of wells hosting dividing cells after peptide treatment and overnight LB) ([2]; listed as BienA9) | No. of non-dividing survivors at the end of the experiments [2] | vesicle survival rate ([1]; 10 μM peptide, listed as A10) | increase in cell length on average before cell death [2] | vesicle survival rate ([1]; 10 μM peptide, listed as A11) | survival fraction (fraction of wells hosting dividing cells after peptide treatment and overnight LB) ([2]; listed as A11)
1 | RLLRLALRL [bienA9, ultrashort amphipathic helix peptide with binary encoding by arginine and leucine, alanine at the mutation position] | 41 ± 3% | 19.9 ± 0.5% | bimodal all-or-none mode | did not | 17% | 0.9 ± 0.2 | 65 ± 11% | over 50% | 11 | – | – | – | –
2 | RLLRLALRLL [bienA10, ultrashort amphipathic helix peptide with binary encoding by arginine and leucine, alanine at the mutation position] | 12 ± 2% | complete disruption of the entire vesicle population | unimodal “graded” mode of action | immediately and uniformly arrested cell division | 16% | 1.2 ± 0.2 | less than 5% | – | 6 | 0% | 20% | – | –
3 | RLLRLALRLLR [bienA11, ultrashort amphipathic helix peptide with binary encoding by arginine and leucine, alanine at the mutation position] | 1 ± 1% | complete disruption of the entire vesicle population | unimodal “graded” mode of action | immediately and uniformly arrested cell division | 16% | 1.2 ± 0.2 | less than 5% | – | 24 | – | 20% | 0% | 0%
4 | RLLRLKLRL [bienK9, ultrashort amphipathic helix peptide with binary encoding by arginine and leucine, lysine at the mutation position] | 41 ± 20% | 47 ± 7% | – | – | 44% | 2.0 ± 0.9 | – | – | 13 | – | – | – | –
5 | RLLRLKLRLL [bienK10, ultrashort amphipathic helix peptide with binary encoding by arginine and leucine, lysine at the mutation position] | 40 ± 7% | 48 ± 10% | – | – | 47% | 2.0 ± 0.9 | – | – | 7 | – | – | – | –
6 | RLLRLKLRLLR [bienK11, ultrashort amphipathic helix peptide with binary encoding by arginine and leucine, lysine at the mutation position] | 70 ± 13% | 78 ± 4% | – | – | 48% | 1.8 ± 0.9 | 31 ± 18% | – | 1 | – | – | – | –
